Tests used:
[1] = Antiinflammatory activity in NMRI mouse macrophages assessed as inhibition of A23187-induced LTC4 release at 25 uM by Ellman's method relative to control; format: functional; conditions: Macrophage
[2] = Antiinflammatory activity in NMRI mouse macrophages assessed as inhibition of A23187-induced LTC4 release by Ellman's method; format: functional, cell-based; conditions: macrophage
[3] = Antiinflammatory activity in NMRI mouse macrophages assessed as inhibition of A23187-induced PGE2 release by Ellman's method; format: functional, cell-based; conditions: macrophage
[4] = Antiinflammatory activity in NMRI mouse macrophages assessed as inhibition of A23187-induced PGE2 release at 100 uM by Ellman's method relative to control; format: functional; conditions: Macrophage
[5] = Antiinflammatory activity in NMRI mouse macrophages assessed as inhibition of A23187-induced LTC4 release at 100 uM by Ellman's method relative to control; format: functional; conditions: Macrophage

SMILES | IC50 [2] | IC50 [3] | inhibition at 25 µM [1] | inhibition at 100 µM [4] | inhibition at 100 µM [5]
O=c1ccc2cc(O)c(O)cc2o1 [ESCULETIN] | 18 µmol | 11 µmol | 71.2% | 71.7% | –
COc1cc2ccc(=O)oc2cc1O[C@@H]1O[C@H](CO)[C@@H](O)[C@H](O)[C@H]1O [SCOPOLIN] | – | 77 µmol | 55% | 75.7% | –
COc1cc2ccc(=O)oc2cc1O [SCOPOLETIN] | – | 5 µmol | 8.8% | 77.4% | –

Second part, led by results:

IC50 [2] | IC50 [3] | SMILES | inhibition at 25 µM [1] | inhibition at 100 µM [4] | inhibition at 100 µM [5]
– | 22 µmol | COc1ccc2c(c1)c(CC(=O)O)c(C)n2C(=O)c1ccc(Cl)cc1 [INDOMETHACIN] | – | 78.1% | –
– | 84 µmol | COc1ccc2ccc(=O)oc2c1 [HERNIARIN] | 2.94% | 65.7% | –
6 µmol | – | CC(Cc1ccc(O)c(O)c1)C(C)Cc1ccc(O)c(O)c1 (configuration not stated) [NORDIHYDROGUAIARETIC ACID] | – | – | 78.7%

From ChEMBL document CHEMBL1158288, “Antiinflammatory activity of coumarins from Santolina oblongifolia” (J Nat Prod, 1996)
